In patent US12263248B2, “Compounds and compositions for intracellular delivery of therapeutic agents” (ModernaTX, Inc., priority 2018, dated 2025):
Where two headings read alike, the source gives them in different places.

What was measured:
hEPO mRNA = experiment: hEPO expression and cytokine induction after intravenous administration to mice; assay type: in vivo; conditions: for hEPO expression and average total flux compared with MC3: Table 12 comparison, in words; for hEPO concentrations compared with MC3 formulations / hEPO expression 3 h / Average hEPO concentration (pg/ml, 6 h) / Cytokine expression IL-6 (6 h) / Cytokine expression IP-10 (6 h) / hEPO expression 6 h / Fold increase in hEPO concentration relative to MC3 / hEPO expression 24 h: mice, 0.5 mpk; for hEPO concentrations compared with MC3 formulations: i.v., 3, 6 and 24 hours; for hEPO expression 3 h / Average hEPO concentration (pg/ml, 6 h) / Cytokine expression IL-6 (6 h) / Cytokine expression IP-10 (6 h) / hEPO expression 6 h / Fold increase in hEPO concentration relative to MC3 / hEPO expression 24 h: intravenous; for Average hEPO concentration (pg/ml, 6 h) / Cytokine expression IL-6 (6 h) / Cytokine expression IP-10 (6 h) / hEPO expression 6 h / Fold increase in hEPO concentration relative to MC3: 6 h; for Fold increase in hEPO concentration relative to MC3: Table 12
Description: The expression of hEPO and cytokine induction in mice intravenously administered a nanoparticle composition at a dose of 0.5 mpk were measured at 3, 6, and 24 hours. […] The expression of hEPO in mice intramuscularly administered a nanoparticle composition from Table 1B at a dose of 0.01 mpk were measured at 3, 6, and 24 hours.
Blood collection and analysis for hEPO. Blood was collected from mice or rats via the tail vein and hEPO concentrations were determined using a hEPO ELISA assay.

[1] = Nanoparticle characterisation: particle size, polydispersity index, zeta potential; assay type: physicochemical; conditions: nanoparticle composition with hEPO mRNA (Table 30)
Description: Nanoparticle compositions may be characterized by a variety of methods. For example, microscopy (e.g., transmission electron microscopy or scanning electron microscopy) may be used to examine the morphology and size distribution of a nanoparticle composition. Dynamic light scattering or potentiometry (e.g., potentiometric titrations) may be used to measure zeta potentials. Dynamic light scattering may also be utilized to determine particle sizes. Instruments such as the Zetasizer Nano ZS (Malvern Instruments Ltd, Malvern, Worcestershire, UK) may also be used to measure multiple characteristics of a nanoparticle composition, such as particle size, polydispersity index, and zeta potential.
The mean size of a nanoparticle composition may be between 10s of nm and 100s of nm, e.g., measured by dynamic light scattering (DLS). For example, the mean size may be from about 40 nm to about 150 nm, such as about 40 nm, 45 nm, 50 nm, 55 nm, 60 nm, 65 nm, 70 nm, 75 nm, 80 nm, 85 nm, 90 nm, 95 nm, 100 nm, 105 nm, 110 nm, 115 nm, 120 nm, 125 nm, 130 nm, 135 nm, 140 nm, 145 nm, or 150 nm. In some embodiments, the mean size of a nanoparticle composition may be from about 50 nm to about 100 nm, from about 50 nm to about 90 nm, from about 50 nm to about 80 nm, from about 50 nm to about 70 nm, from about 50 nm to about 60 nm, from about 60 nm to about 100 nm, from about 60 nm to about 90 nm, from about 60 nm to about 80 nm, from about 60 nm to about 70 nm, from about 70 nm to about 150 nm, from about 70 nm to about 130 nm, from about 70 nm to about 100 nm, from about 70 nm to about 90 nm, from about 70 nm to about 80 nm, from about 80 nm to about 150 nm, from about 80 nm to about 130 nm, from about 80 nm to about 100 nm, from about 80 nm to about 90 nm, from about 90 nm to about 150 nm, from about 90 nm to about 130 nm, or from about 90 nm to about 100 nm. In certain embodiments, the mean size of a nanoparticle composition may from about 70 nm to about 130 nm or be from about 70 nm to about 100 nm. In a particular embodiment, the mean size may be about 80 nm. In other embodiments, the mean size may be about 100 nm. In other embodiments, the mean size may be about 120 nm.
A nanoparticle composition may be relatively homogenous. A polydispersity index may be used to indicate the homogeneity of a nanoparticle composition, e.g., the particle size distribution of the nanoparticle compositions. A small (e.g., less than 0.3) polydispersity index generally indicates a narrow particle size distribution. A nanoparticle composition may have a polydispersity index from about 0 to about 0.25, such as 0.01, 0.02, 0.03, 0.04, 0.05, 0.06, 0.07, 0.08, 0.09, 0.10, 0.11, 0.12, 0.13, 0.14, 0.15, 0.16, 0.17, 0.18, 0.19, 0.20, 0.21, 0.22, 0.23, 0.24, or 0.25. In some embodiments, the polydispersity index of a nanoparticle composition may be from about 0.10 to about 0.20.
The zeta potential of a nanoparticle composition may be used to indicate the electrokinetic potential of the composition. For example, the zeta potential may describe the surface charge of a nanoparticle composition. Nanoparticle compositions with relatively low charges, positive or negative, are generally desirable, as more highly charged species may interact undesirably with cells, tissues, and other elements in the body. In some embodiments, the zeta potential of a nanoparticle composition may be from about −10 mV to about +20 mV, from about −10 mV to about +15 mV, from about −10 mV to about +10 mV, from about −10 mV to about +5 mV, from about −10 mV to about 0 mV, from about −10 mV to about −5 mV, from about −5 mV to about +20 mV, from about −5 mV to about +15 mV, from about −5 mV to about +10 mV, from about −5 mV to about +5 mV, from about −5 mV to about 0 mV, from about 0 mV to about +20 mV, from about 0 mV to about +15 mV, from about 0 mV to about +10 mV, from about 0 mV to about +5 mV, from about +5 mV to about +20 mV, from about +5 mV to about +15 mV, or from about +5 mV to about +10 mV.

[2] = Pharmacokinetics of lipids in mice; assay type: in vivo; design: AUC / AUCall Mean: concentration or dose not given beside the values; conditions: mouse; for AUC: read-out: AUCall Mean
Description: FIGS. 45A and 45B are a pair of graphs illustrating pharmacokinetics of lipids of the disclosure in mice. Mice were administered compositions comprising Compound 50 (FIG. 45A) or Compound 301 (FIG. 45B), in nanoparticle compositions containing DSPC and PEG 1.

[3] = Liver, * = 2 terminal datapoints estimation
[4] = Spleen, * = 2 terminal datapoints estimation

CCCCC/C=C\C/C=C\CCCCCCCCN(CCO)CCCCCCCC(=O)OC(CCCCCCCC)CCCCCCCC [Compound 6, Heptadecan-9-yl 8-((2-hydroxyethyl)((9Z,12Z)-octadeca-9,12-dien-1-yl)amino)octanoate]
hEPO expression and average total flux compared with MC3 (hEPO mRNA): outperform MC3
hEPO concentrations compared with MC3 formulations (hEPO mRNA): higher hEPO concentrations than MC3 formulations
hEPO expression 3 h (hEPO mRNA): 2.31e+06 pg/mL
Average hEPO concentration (pg/ml, 6 h) (hEPO mRNA): 3.17e+06 pg/mL
Cytokine expression IL-6 (6 h) (hEPO mRNA): 10.15 pg/mL
Cytokine expression IP-10 (6 h) (hEPO mRNA): 116.66 pg/mL
hEPO expression 6 h (hEPO mRNA): 3.17e+06 pg/mL
Fold increase in hEPO concentration relative to MC3 (hEPO mRNA): 1.73
hEPO expression 24 h (hEPO mRNA): 1.11e+06 pg/mL

CCCCCCCCCOC(=O)CCCCCCCN(CCO)CCCCCCCC(=O)OC(CCCCCCCC)CCCCCCCC [Compound 18, Heptadecan-9-yl 8-((2-hydroxyethyl)(8-(nonyloxy)-8-oxooctyl)amino)octanoate]
hEPO expression and average total flux compared with MC3 (hEPO mRNA): outperform MC3
hEPO concentrations compared with MC3 formulations (hEPO mRNA): higher hEPO concentrations than MC3 formulations
hEPO expression 3 h (hEPO mRNA): 3e+06 pg/mL
Average hEPO concentration (pg/ml, 6 h) (hEPO mRNA): 3.38e+06 pg/mL
Cytokine expression IL-6 (6 h) (hEPO mRNA): 10.16 pg/mL
Cytokine expression IP-10 (6 h) (hEPO mRNA): 299.93 pg/mL
hEPO expression 6 h (hEPO mRNA): 3.38e+06 pg/mL
Fold increase in hEPO concentration relative to MC3 (hEPO mRNA): 1.85
hEPO expression 24 h (hEPO mRNA): 1.8e+06 pg/mL
Osmolality [1]: 312 mOsm/kg
Zeta potential [1]: −3.53 mV
pH [1]: 7.64
Cmax ([2]; Liver): 6050 ng/mL
HL [2, 3]: 5.8 h
AUC ([2]; Liver): 16900 ng·h/mL
Tmax ([2]; Liver, read-out: Tmax): 1 h
Cmax ([2]; Plasma): 44200 ng/mL
HL ([2]; Plasma): 1.2 h
AUC ([2]; Plasma): 61800 ng·h/mL
Tmax ([2]; Plasma, read-out: Tmax): 0.5 h
Cmax ([2]; Spleen): 3770 ng/mL
HL [2, 4]: 10.6 h
AUC ([2]; Spleen): 39400 ng·h/mL
Tmax ([2]; Spleen, read-out: Tmax): 4 h

CCCCCCCCCCCOC(=O)CCCCCN(CCO)CCCCCCCC(=O)OC(CCCCCCCC)CCCCCCCC [Compound 25, Heptadecan-9-yl 8-((2-hydroxyethyl)(6-oxo-6-(undecyloxy)hexyl)amino)octanoate]
Osmolality [1]: 304 mOsm/kg
Zeta potential [1]: −3.88 mV
pH [1]: 7.60
Cmax ([2]; Liver): 17900 ng/mL
HL [2, 3]: 6.9 h
AUC ([2]; Liver): 89200 ng·h/mL
Tmax ([2]; Liver, read-out: Tmax): 1 h
Cmax ([2]; Plasma): 37500 ng/mL
HL ([2]; Plasma): 2.3 h
AUC ([2]; Plasma): 35400 ng·h/mL
Tmax ([2]; Plasma, read-out: Tmax): 0.5 h
Cmax ([2]; Spleen): 20400 ng/mL
HL [2, 4]: 15.2 h
AUC ([2]; Spleen): 259000 ng·h/mL
Tmax ([2]; Spleen, read-out: Tmax): 4 h

CCCCCCCCCOC(=O)CCCN(CCO)CCCCCCCC(=O)OC(CCCCCCCC)CCCCCCCC [Compound 26, Heptadecan-9-yl 8-((2-hydroxyethyl)(4-(nonyloxy)-4-oxobutyl)amino) octanoate]
Osmolality [1]: 305 mOsm/kg
Zeta potential [1]: −3.73 mV
pH [1]: 7.54

CCCCCCCCC(C)OC(=O)CCCCCCCN(CCO)CCCCCCCC(=O)OC(CCCCCCCC)CCCCCCCC (stereo not shown) [Compound 48, decan-2-yl 8-((8-(heptadecan-9-yloxy)-8-oxooctyl)(2-hydroxyethyl)amino)octanoate]
Osmolality [1]: 311 mOsm/kg
Zeta potential [1]: −3.61 mV
pH [1]: 7.58

CCCCC/C=C\C/C=C\CCCCCCCCC(CCCCCCCC/C=C\C/C=C\CCCCC)OC(=O)CCCN(C)C [MC3, DLin-MC3-DMA, reference compound]
hEPO expression 3 h (hEPO mRNA): 1.57e+06 pg/mL
Average hEPO concentration (pg/ml, 6 h) (hEPO mRNA): 1.83e+06 pg/mL
Cytokine expression IL-6 (6 h) (hEPO mRNA): 19.85 pg/mL
Cytokine expression IP-10 (6 h) (hEPO mRNA): 117.94 pg/mL
hEPO expression 6 h (hEPO mRNA): 1.83e+06 pg/mL
Fold increase in hEPO concentration relative to MC3 (hEPO mRNA): 1
hEPO expression 24 h (hEPO mRNA): 810000 pg/mL
Osmolality [1]: 318 mOsm/kg
Zeta potential [1]: −3.64 mV
pH [1]: 7.52
AUCall Mean ([2]; Liver): 1,410,000 hr * ng/mL
Cmax Mean ([2]; Liver): 33,000 ng/mL
Tmax ([2]; Liver): 24 h
HL [2, 3]: 52.5* hr
AUCall Mean ([2]; Plasma): 69,100 hr * ng/mL
Cmax Mean ([2]; Plasma): 28,900 ng/mL
HL ([2]; Plasma): 8.4 h
Tmax ([2]; Plasma): 0.5 h
AUCall Mean ([2]; Spleen): 787,000 hr * ng/mL
Cmax Mean ([2]; Spleen): 21,200 ng/mL
Tmax ([2]; Spleen): 8 h
HL [2, 4]: 33.3* hr
